Assay results reported in patent US20010027213A1, “Use of pyrethroid compounds to promote hair growth” (priority 1998, published 2001).
Marks after values point to notes of the source that are not given here.

Experiments:
Assay type in all cases: in vivo
mice (Sencar strain) = assay: Ear thickness after TPA plus pyrethroid application, Example 2
Experimental: Another ear thickness experiment was performed. Ear thickness of mice (Sencar strain, female, 10 weeks of age, n =3/group) was measured with a thickness gage (Mitsutoyo Corp.). After measuring the thickness of both ears at the beginning of the experiment, 20 μL of 12-O-tetradecanoyl-phorbol 13-acetate (TPA) at a concentration of 10^−4 M in acetone was applied on both ears, followed by the application of 10 μL of ethanol on the left ears and 10 μL of the four compositions tested in Example 1 on the right ears (at a concentration of 1% of pyrethroid compound in ethanol solution). Again, ear thickness was monitored over three consecutive days following administration of the compositions.

mice (C3H strain) = assay: Ear thickness (primary skin irritancy) after topical application, Example 1; conditions: for Ear thickness compared to ethanol: 1% in ethanol
Experimental: The following example was performed to determine if pyrethroid compounds cause skin irritation (as indicated by ear thickness in mice). Skin irritants may contribute to promoting hair growth.
Prior to the experiment, ear thickness of mice (C3H strain, female, 16 weeks of age, n=3/group) was measured with a thickness gage (Mitsutoyo Corp.). After measuring ear thickness of both ears, 10 μL of ethanol was applied on left ear and 10 μL of a pyrethroid solution (1% pyrethroid compound in ethanol) was applied to the right ear. Ear thickness was measured for three consecutive days after administration.

mice of the C3H strain = assay: Skin irritancy on clipped back skin, visual score, Example 3; conditions: three repeated topical administration, 1% in ethanol
Experimental: This experiment was conducted to test the skin irritancy of the compositions of this invention on hair-growing areas of test subjects, i.e., female mice (10 weeks old) of the C3H strain (n=5 group). After clipping the hair of the back skin of mice with an electric clipper, 5 μL/cm^2 of each four composition tested in Examples 1 and 2 (at a concentration of 1% in an ethanol solution) were applied. The application was administered once a day, for 3 consecutive days. Skin irritation was evaluated by unaided visual inspection at the end of the third day.

C3H strain mice [1] = assay: Hair growth on clipped back skin, repeat with minoxidil control, Example 5; set-up: Level of hair growth (unaided visual inspection): scale not given here; conditions: for Promoting hair growth: concentrations of 0.1% and 1% in ethanol solutions
Experimental: (§1) The ability of topical administration of pyrethroid compounds to promote hair growth was assessed in female C3H strain mice (10 weeks old; n=5/group). Hair on the back skin of the mice was clipped carefully with an electric clipper. 5 μL/cm^2 of the five compositions tested in the examples above were applied to the mice daily. The level of hair growth at the applied skin areas were evaluated by unaided visual inspection at the indicated time. Cyclosporin A was used as a control.
The experiment described in Example 4 was repeated with a commercially available hair growth-promoting compound (5% minoxidil) as a control.

C3H strain mice [2] = assay: Hair growth on clipped back skin, topical daily application, Example 4; set-up: Level of hair growth (unaided visual inspection): scale not given here; conditions: for Promoting hair growth: 1% topical daily; for Level of hair growth (unaided visual inspection): 1%, 5 μL/cm^2 daily, n=5/group
Experimental: as §1, with “time.” for “time. Cyclosporin A was used as a control.”

[3] = day 0 (before application), Sencar female mice, n=3
[4] = day 1, 20 μL TPA 10^−4 M in acetone then 10 μL of 1% in ethanol, Sencar mice
[5] = day 2, 20 μL TPA 10^−4 M in acetone then 10 μL of 1% in ethanol, Sencar mice
[6] = day 3, 20 μL TPA 10^−4 M in acetone then 10 μL of 1% in ethanol, Sencar mice
[7] = day 0 (before application), C3H female mice, n=3
[8] = day 1, 10 μL of 1% in ethanol on right ear, C3H mice
[9] = day 2, 10 μL of 1% in ethanol on right ear, C3H mice
[10] = day 3, 10 μL of 1% in ethanol on right ear, C3H mice

| SMILES | Right ear thickness (mice (Sencar strain); [3]) | Right ear thickness (mice (Sencar strain); [4]) | Right ear thickness (mice (Sencar strain); [5]) | Right ear thickness (mice (Sencar strain); [6]) | Ear thickness compared to ethanol (mice (C3H strain); C3H mice) | Right ear thickness (mice (C3H strain); [7]) | Right ear thickness (mice (C3H strain); [8]) | Right ear thickness (mice (C3H strain); [9]) | Right ear thickness (mice (C3H strain); [10]) | Skin irritation (redness) (mice of the C3H strain) | Level of hair growth (unaided visual inspection) (C3H strain mice [1]; 0.01%, Week 1) | Level of hair growth (unaided visual inspection) (C3H strain mice [1]; 0.01%, Week 2) | Level of hair growth (unaided visual inspection) (C3H strain mice [1]; 0.01%, Week 3) | Level of hair growth (unaided visual inspection) (C3H strain mice [1]; 0.01%, Week 4) | Level of hair growth (unaided visual inspection) (C3H strain mice [1]; 0.01%, Week 5) | Level of hair growth (unaided visual inspection) (C3H strain mice [1]; 0.01%, Week 6) | Level of hair growth (unaided visual inspection) (C3H strain mice [1]; 0.1%, Week 1) | Level of hair growth (unaided visual inspection) (C3H strain mice [1]; 0.1%, Week 2) | Level of hair growth (unaided visual inspection) (C3H strain mice [1]; 0.1%, Week 3) | Level of hair growth (unaided visual inspection) (C3H strain mice [1]; 0.1%, Week 4) | other results |
| --- | --- | --- | --- | --- | --- | --- | --- | --- | --- | --- | --- | --- | --- | --- | --- | --- | --- | --- | --- | --- | --- |
| CC1(C)C(C=C(Cl)Cl)C1C(=O)OC(C#N)c1cccc(Oc2ccccc2)c1 (stereo not drawn) [Cypermethrin, cypermethrin] | 24.0 ×0.01 mm | 26.7 ×0.01 mm | 28.3 ×0.01 mm | 27.3 ×0.01 mm | did not increase ear thickness | 27.7 ×0.01 mm | 27.7 ×0.01 mm | 27.3 ×0.01 mm | 28.0 ×0.01 mm | failed to cause skin irritation | 0 | 0 | 0 | 0 | 0 | 0 | 0 | 0 | 5 | 5 | Level of hair growth (unaided visual inspection) (C3H strain mice [1]; 0.1%, Week 5): 5; Level of hair growth (unaided visual inspection) (C3H strain mice [1]; 0.1%, Week 6): 5; Level of hair growth (unaided visual inspection) (C3H strain mice [1]; 1%, Week 1): 0; Level of hair growth (unaided visual inspection) (C3H strain mice [1]; 1%, Week 2): 0; Level of hair growth (unaided visual inspection) (C3H strain mice [1]; 1%, Week 3): 5; Level of hair growth (unaided visual inspection) (C3H strain mice [1]; 1%, Week 4): 5; Level of hair growth (unaided visual inspection) (C3H strain mice [1]; 1%, Week 5): 5; Level of hair growth (unaided visual inspection) (C3H strain mice [1]; 1%, Week 6): 5; Promoting hair growth (C3H strain mice [1]): effective in promoting hair growth; Promoting hair growth (C3H strain mice [2]): effective in promoting hair growth; Level of hair growth (unaided visual inspection) (C3H strain mice [2]; Day 7): 0; Level of hair growth (unaided visual inspection) (C3H strain mice [2]; Day 14): 0; Level of hair growth (unaided visual inspection) (C3H strain mice [2]; Day 19): 2; Level of hair growth (unaided visual inspection) (C3H strain mice [2]; Day 29): 4; Level of hair growth (unaided visual inspection) (C3H strain mice [2]; Day 36): 5 |
| CC1(C)[C@H](C(=O)O[C@H](C#N)c2cccc(Oc3ccccc3)c2)[C@@H]1C=C(Br)Br [Deltamethrin, deltamethrin] | 26.0 ×0.01 mm | 27.3 ×0.01 mm | 29.0 ×0.01 mm | 28.0 ×0.01 mm | did not increase ear thickness | 27.0 ×0.01 mm | 27.3 ×0.01 mm | 27.3 ×0.01 mm | 28.0 ×0.01 mm | failed to cause skin irritation | 0 | 0 | 1 | 1 | 1 | 3 | 0 | 0 | 5 | 5 | Level of hair growth (unaided visual inspection) (C3H strain mice [1]; 0.1%, Week 5): 5; Level of hair growth (unaided visual inspection) (C3H strain mice [1]; 0.1%, Week 6): 5; Level of hair growth (unaided visual inspection) (C3H strain mice [1]; 1%, Week 1): 0; Level of hair growth (unaided visual inspection) (C3H strain mice [1]; 1%, Week 2): 2; Level of hair growth (unaided visual inspection) (C3H strain mice [1]; 1%, Week 3): 5; Level of hair growth (unaided visual inspection) (C3H strain mice [1]; 1%, Week 4): 5; Level of hair growth (unaided visual inspection) (C3H strain mice [1]; 1%, Week 5): 5; Level of hair growth (unaided visual inspection) (C3H strain mice [1]; 1%, Week 6): 5; Promoting hair growth (C3H strain mice [1]): effective in promoting hair growth; Promoting hair growth (C3H strain mice [2]): effective in promoting hair growth; Level of hair growth (unaided visual inspection) (C3H strain mice [2]; Day 7): 0; Level of hair growth (unaided visual inspection) (C3H strain mice [2]; Day 14): 0; Level of hair growth (unaided visual inspection) (C3H strain mice [2]; Day 19): 1; Level of hair growth (unaided visual inspection) (C3H strain mice [2]; Day 29): 5; Level of hair growth (unaided visual inspection) (C3H strain mice [2]; Day 36): 5 |
| CC(C)C(C(=O)OC(C#N)c1cccc(Oc2ccccc2)c1)c1ccc(Cl)cc1 (stereo not drawn) [Fenvalerate, fenvalerate] | 24.0 ×0.01 mm | 26.3 ×0.01 mm | 26.7 ×0.01 mm | 26.7 ×0.01 mm | did not increase ear thickness | 27.3 ×0.01 mm | 28.0 ×0.01 mm | 28.0 ×0.01 mm | 27.0 ×0.01 mm | failed to cause skin irritation | 0 | 0 | 0 | 0 | 0 | 0 | 0 | 0 | 5 | 5 | Level of hair growth (unaided visual inspection) (C3H strain mice [1]; 0.1%, Week 5): 5; Level of hair growth (unaided visual inspection) (C3H strain mice [1]; 0.1%, Week 6): 5; Level of hair growth (unaided visual inspection) (C3H strain mice [1]; 1%, Week 1): 0; Level of hair growth (unaided visual inspection) (C3H strain mice [1]; 1%, Week 2): 0*; Level of hair growth (unaided visual inspection) (C3H strain mice [1]; 1%, Week 3): 3*; Level of hair growth (unaided visual inspection) (C3H strain mice [1]; 1%, Week 4): 5; Level of hair growth (unaided visual inspection) (C3H strain mice [1]; 1%, Week 5): 5; Level of hair growth (unaided visual inspection) (C3H strain mice [1]; 1%, Week 6): 5; Promoting hair growth (C3H strain mice [1]): effective in promoting hair growth; Promoting hair growth (C3H strain mice [2]): effective in promoting hair growth; Level of hair growth (unaided visual inspection) (C3H strain mice [2]; Day 7): 0; Level of hair growth (unaided visual inspection) (C3H strain mice [2]; Day 14): 0; Level of hair growth (unaided visual inspection) (C3H strain mice [2]; Day 19): 1; Level of hair growth (unaided visual inspection) (C3H strain mice [2]; Day 29): 4; Level of hair growth (unaided visual inspection) (C3H strain mice [2]; Day 36): 4 |
| Nc1cc(N2CCCCC2)nc(N)[n+]1[O-] [Minoxidil, minoxidil] | – | – | – | – | – | – | – | – | – | – | – | – | – | – | – | – | – | – | – | – | Level of hair growth (unaided visual inspection) (C3H strain mice [1]; 5%, Week 1): 0; Level of hair growth (unaided visual inspection) (C3H strain mice [1]; 5%, Week 2): 0; Level of hair growth (unaided visual inspection) (C3H strain mice [1]; 5%, Week 3): 2; Level of hair growth (unaided visual inspection) (C3H strain mice [1]; 5%, Week 4): 3; Level of hair growth (unaided visual inspection) (C3H strain mice [1]; 5%, Week 5): 4; Level of hair growth (unaided visual inspection) (C3H strain mice [1]; 5%, Week 6): 4 |
| CC1(C)C(C=C(Cl)Cl)C1C(=O)OCc1cccc(Oc2ccccc2)c1 (stereo not drawn) [Permethrin, permethrin] | 23.3 ×0.01 mm | 27.3 ×0.01 mm | 27.0 ×0.01 mm | 27.7 ×0.01 mm | did not increase ear thickness | 27.3 ×0.01 mm | 27.7 ×0.01 mm | 27.7 ×0.01 mm | 28.3 ×0.01 mm | failed to cause skin irritation | 0 | 0 | 0 | 0 | 0 | 0 | 0 | 0 | 0 | 0 | Level of hair growth (unaided visual inspection) (C3H strain mice [1]; 0.1%, Week 5): 0; Level of hair growth (unaided visual inspection) (C3H strain mice [1]; 0.1%, Week 6): 0; Level of hair growth (unaided visual inspection) (C3H strain mice [1]; 1%, Week 1): 0; Level of hair growth (unaided visual inspection) (C3H strain mice [1]; 1%, Week 2): 0; Level of hair growth (unaided visual inspection) (C3H strain mice [1]; 1%, Week 3): 0; Level of hair growth (unaided visual inspection) (C3H strain mice [1]; 1%, Week 4): 0; Level of hair growth (unaided visual inspection) (C3H strain mice [1]; 1%, Week 5): 0; Level of hair growth (unaided visual inspection) (C3H strain mice [1]; 1%, Week 6): 1; Level of hair growth (unaided visual inspection) (C3H strain mice [2]; Day 7): 0; Level of hair growth (unaided visual inspection) (C3H strain mice [2]; Day 14): 0; Level of hair growth (unaided visual inspection) (C3H strain mice [2]; Day 19): 0; Level of hair growth (unaided visual inspection) (C3H strain mice [2]; Day 29): 0; Level of hair growth (unaided visual inspection) (C3H strain mice [2]; Day 36): 0 |
